Source: patent publication US10119079B2, “Composition for removal of sulfur-containing compounds” (KURARAY CO., LTD., priority 2014, dated 2018)
Converted amounts (≈) assume the structure as drawn.

Assays:
[1] = Removal of H2S from crude oil in autoclave (Examples 2-3, Comparative Examples 1-2); conditions: liquid added at 1% by mass, 80° C., 5 hours, 800 rpm; for H2S concentration of the gas phase part after the reaction: initial 2,580-2,800 ppm
Method: In a 100-mL autoclave equipped with a thermometer and a stirrer, 30 mL of a crude oil collected in Japan was charged and stirred until an H2S concentration of a gas phase part became constant. Thereafter, the concentration was measured with RX-517 (manufactured by Riken Kiki Co., Ltd.) and found to be 2,800 ppm. Subsequently, a composition liquid prepared by mixing PEG-200 and NL/MOL in a mass ratio of 1/1 was added in a concentration of 1% by mass relative to the crude oil. At this time, the addition amount of NL/MOL was 0.6 mmol, and the presence amount of H2S within the apparatus was 0.05 mmol. Thereafter, the inside of the apparatus was subjected to temperature rise to 80° C. while stirring at 800 rpm, and the contents were allowed to react with each other for 5 hours. After the reaction, the reaction mixture was cooled to room temperature, an H2S concentration of the gas phase part was measured and found to be 2 ppm, and a removal efficiency was 99.9%.
(§1) In a 100-mL autoclave equipped with a thermometer and a stirrer, 30 mL of a crude oil collected in Japan was charged and stirred until an H2S concentration of a gas phase part became constant. Thereafter, the concentration was measured with RX-517 (manufactured by Riken Kiki. Co., Ltd.) and found to be 2,580 ppm. Subsequently, a 50% by mass MGL aqueous solution was added in a concentration of 1% by mass relative to the crude oil. At this time, the addition amount of MGL was 0.9 mmol, and the presence amount of H2S within the apparatus was 0.05 mmol. Thereafter, the inside of the apparatus was subjected to temperature rise to 80° C. while stirring at 800 rpm, and the contents were allowed to react with each other for 5 hours. After the reaction, the reaction mixture was cooled to room temperature, an H2S concentration of the gas phase part was measured and found to be 70 ppm, and a removal efficiency was 97.3%.
as §1, with “Kiki” for “Kiki.”, “2,714” for “2,580”, “glutaraldehyde” for “MGL”, “1.0” for “0.9”, “100” for “70”, “96.3%.” for “97.3%.”
In a 100-mL autoclave equipped with a thermometer and a stirrer, 30 mL of a crude oil collected in Japan was charged and stirred until an H2S concentration of a gas phase part became constant. Thereafter, the concentration was measured with RX-517 (manufactured by Riken Kiki Co., Ltd.) and found to be 2,600 ppm. Subsequently, a 40% by mass glyoxal aqueous solution (manufactured by Wako Pure Chemical Industries, Ltd.) was added in a concentration of 1% by mass relative to the crude oil. At this time, the addition amount of glyoxal was 1.8 mmol, and the presence amount of H2S within the apparatus was 0.04 mmol. Thereafter, the inside of the apparatus was subjected to temperature rise to 80° C. while stirring at 800 rpm, and the contents were allowed to react with each other for 5 hours. After the reaction, the reaction mixture was cooled to room temperature, an H2S concentration of the gas phase part was measured and found to be 498 ppm, and a removal efficiency was 80.8%.

[2] = test system: 6-week-old male CRj:CD(SD) rat; assay: Oral toxicity, 14-day repeated oral administration; type: in vivo
From the text: A test substance which had been emulsified and dispersed in a 2%-gum arabic aqueous solution (containing 0.5%-Tween 80) was compulsorily administered in a 6-week-old male CRj:CD(SD) rat once a day for 14 days by using an oral sonde. A body weight variation and a general state during the administration period were observed. The rat was fasted for one day from the final administration date (drinking was freely taken), and on the day after final administration, taking a blood sample (for various blood tests) and mass measurement of major organs were performed. In addition, with respect to the liver, kidney, spleen, and testis, a histopathological examination (optical microscopic observation of HE-stained thin sliced tissue piece) was also carried out. A dose was set to 1,000, 250, 60, 15, and 0 mg/kg/day (administration liquid volume=1 mL/100 g-body weight/day), respectively, and five animals were used for each dosage.
(1) NL (GC purity: 99.7%)
(2) Glutaraldehyde (water content: 101 ppm, GC purity: 99.8%)
As a result of the test, with respect to NL, no fatal case was admitted even at the highest dose of 1,000 mg/kg/day.

[3] = test system: sludge of the sewage treatment plant; assay: Bactericidal test on sludge (MTT method); type: cell-based; conditions: sludge bacterial culture, about 25° C., 24 and 48 hours, MTT visual
Method: To a synthetic sewer water prepared by dissolving 5 g of each of glucose, peptone, and monopotassium dihydrogen phosphate in one liter of water and adjusting the pH at 7.0±1.0 with sodium hydroxide, a sludge of the sewage treatment plant located in the Mizushima district, Kurashiki-shi, Okayama Prefecture, Japan was added in an amount of 30 ppm as converted to dry mass, thereby preparing a bacterial culture. Meanwhile, a test substance was diluted with distilled water on a scale of […] in a final concentration of 1,000 to 0.004 ppm (common ratio=4) on a 24-well microplate, thereby preparing test solutions. Two wells were used for every concentration. As a comparison target, (distilled water+bacterial culture) was defined as “bacterial culture blank”, and distilled water alone was defined as “blank”.
The above-prepared bacterial culture and test solution were mixed in a volume ratio of 1/1, and the mixture was allowed to stand within a thermostatic tank at ambient temperature (about 25° C.) for 24 hours and 48 hours, respectively. A level of sludge influence at each concentration of the test substance was visually observed by means of the MTT method. An MTT reagent is converted by mitochondria as a microorganism in the sludge to form formazan, thereby developing a blue color.
(1) Mixture of NL and MOL (GC purity: 98.7%, NL/MOL=59/41) […]

[4] = test system: Pseudokirchneriella subcapitata; assay: Alga growth inhibition test (OECD Test Guidelines No. 201); type: cell-based; conditions: Selenastrum capricornutum; algae growth inhibition, 23° C., 72 hours; read-out: ErC50 (72 hr)
Method: An alga growth inhibition test of a test substance was carried out with reference to OECD Test Guidelines No. 201. That is, each of the following test substances was diluted with a test medium to a prescribed dosage. A liquid suspension of algae which had been grown to an exponential growth phase by preculture was added in an initial concentration of 1×10^4 cells/mL. The liquid suspension was subjected to shaking culture at 23° C. using a light irradiation-type bio shaker (BR-180LF, manufactured by Taitec Corporation), the number of algae cells at an elapsed time of 24, 48, and 72 hours, respectively after the start of the test was counted with a flow cytometer (Cell Lab Quant SC, manufactured by Beckman Coulter, Inc.), and a growth ratio at each test dosage was calculated while defining a growth ratio of the normal control as 100%. In addition, ErC50 was calculated according to an equation of an approximate curve of a graph plotting a growth inhibition ratio.
Algae: Pseudokirchneriella subcapitata
Dosage of Test Substance:
Each of the test substance (1) and the test substance (2): 100, 32, 10, 3.2, 1, 0.32 mg/L (common ratio: √10), and 0 mg/L (normal control)
Standard substance: 3.2, 1, 0.32 mg/L, and 0 mg/L (normal control)

[5] = rat, oral, once a day for 14 days

| Compound | removal efficiency [1] [%] | H2S concentration of the gas phase part after the reaction [1] [ppm] | NOEL (maximum no-effect level) [2, 5] [mg/kg] | Sterilizing concentration [3] [ppm] | EC50 [4] [µg/mL] | classification as deleterious substance ([2]; rat oral toxicity test) | fatal cases ([2]; rat, oral, once a day for 14 days, highest dose of 1,000 mg/kg/day) |
| --- | --- | --- | --- | --- | --- | --- | --- |
| O=CCCCC=O [Glutaraldehyde, glutaraldehyde] | 96.3 | 100 | 5 | 63 | 9 (≈ 89.9 µM) | – | – |
| CC(CC=O)CC=O [MGL, 3-methylglutaraldehyde] | 97.3 | 70 | – | – | – | – | – |
| O=CC=O [glyoxal] | 80.8 | 498 | – | – | – | – | – |
| O=CCCCCCCCC=O [NL, 1,9-nonanedial] | – | – | 250 | – | – | not corresponding to a “deleterious substance” | no fatal case |
